# Laboratory results taken from patent publication US20230212533A1 (THE REGENTS OF THE UNIVERSITY OF MICHIGAN, priority 2020, published 2023).
# Values joined by “and” are separate entries in the source; they are usually repeats but may differ in a detail not shown here. Equal values may be shown once. Read-outs that look alike come from different tables or passages of the source.
# Legend:
# [1] = tested on: L-6-hydroxynicotine oxidase (LHNO, 3NG7), wild type, SEQ ID NO:13; details: cited from earlier work; for kcat/Km: wild-type LHNO
# [2] = molecular target: T1, Pseudomonas putida S16 nicotine oxidoreductase NicA2, wild type, SEQ ID NO:131 (Pseudomonas putida, UniProt F8G0P2)
# Target sequence in this assay (F8G0P2 2-482): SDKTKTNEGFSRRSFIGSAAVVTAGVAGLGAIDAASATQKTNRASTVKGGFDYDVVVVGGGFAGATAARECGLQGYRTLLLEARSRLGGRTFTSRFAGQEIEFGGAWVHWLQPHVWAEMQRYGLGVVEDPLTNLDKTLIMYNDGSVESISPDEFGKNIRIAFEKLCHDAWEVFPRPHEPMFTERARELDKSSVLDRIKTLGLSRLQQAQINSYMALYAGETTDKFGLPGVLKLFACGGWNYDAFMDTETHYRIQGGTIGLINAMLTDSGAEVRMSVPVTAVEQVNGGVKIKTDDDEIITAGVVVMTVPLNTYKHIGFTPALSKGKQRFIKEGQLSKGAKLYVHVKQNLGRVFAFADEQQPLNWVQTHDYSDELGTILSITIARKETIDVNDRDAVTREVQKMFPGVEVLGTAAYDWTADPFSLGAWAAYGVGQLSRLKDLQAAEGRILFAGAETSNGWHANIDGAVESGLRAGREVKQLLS
# Procedure: All stopped-flow experiments were performed in 40 mM HEPES-KOH, pH 7.5, 100 mM NaCl, 10% glycerol at 4° C. NicA2 and CycN solutions were made anaerobic in glass tonometers by repeated cycles with vacuum and anaerobic argon^42. When needed, NicA2's FAD was reduced in the anaerobic tonometer by titrating with a dithionite solution housed in a gas-tight Hamilton syringe. The dithionite solution was slowly added up to the point where NicA2's flavin reached the fully-reduced hydroquinone state, and the redox status of the flavin was spectrophotometrically monitored during the titration using a Shimadzu UV-1900 UV-VIS spectrophotometer. […] Buffer containing O2 at specific concentrations was prepared by sparging different O2/N2 gas ratios through buffer in a gas-tight syringe for at least 15 minutes at room temperature. The various O2/N2 gas ratios were prepared from O2 and N2 gas cylinders using a Maxtec MaxBlend 2 gas mixer, and the dissolved O2 concentration in the buffer solution was calculated using a Henry's law constant for O2 of 770 atm M^−1.
# Stopped-flow experiments were conducted using a TgK Scientific SF-61 DX2 KinetAsyst stopped-flow instrument that had been previously equilibrated with a glucose/glucose oxidase solution to make the internal components of the system anaerobic. […] The reaction of NicA2-Flred with O2 was monitored using the instrument's multi-wavelength CCD detector (1.6 ms data interval time). […] Kinetic traces were fit to sums of exponentials using KaleidaGraph (Synergy Software) to determine observed rate constants.
# We next monitored the reaction of NicA2-Flred with O2 in the oxidative half reaction via stopped-flow experiments.
# Escherichia coli = experiment: toxicity to E. coli; format: cell-based
# Procedure: (§1) Directed evolution is a powerful means to improve enzyme function. […] The experiments are performed using the fast-growing model organism, Escherichia coli, which permits evaluation of many variants of NicA2 for performance-enhancing mutations. […] Identification of these variants is expected to reveal the molecular determinants of wild-type NicA2's low O2-dependent activity.
# as §1, with “were” for “are”, “permitted” for “permits”
# [3] = molecular target: T1, Pseudomonas putida S16 nicotine oxidoreductase NicA2, wild type, SEQ ID NO:131; details: WT P. putida S16; about 5 mM nicotine degraded by about 3.5 nM NicA2 in 16 hours
# Target sequence in this assay (F8G0P2 39-482): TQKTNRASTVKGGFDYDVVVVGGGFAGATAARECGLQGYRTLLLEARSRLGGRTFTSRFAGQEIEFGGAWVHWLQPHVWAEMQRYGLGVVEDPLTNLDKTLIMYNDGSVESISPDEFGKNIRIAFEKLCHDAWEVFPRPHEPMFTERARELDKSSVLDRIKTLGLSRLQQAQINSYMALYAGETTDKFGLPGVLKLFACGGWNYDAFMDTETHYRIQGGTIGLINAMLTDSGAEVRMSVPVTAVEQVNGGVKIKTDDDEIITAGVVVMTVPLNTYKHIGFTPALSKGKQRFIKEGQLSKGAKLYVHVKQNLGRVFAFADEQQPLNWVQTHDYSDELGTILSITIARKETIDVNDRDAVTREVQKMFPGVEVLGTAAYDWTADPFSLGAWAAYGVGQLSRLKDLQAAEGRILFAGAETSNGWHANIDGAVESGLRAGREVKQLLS
# Procedure: Both wild-type and ΔcycN strains were grown overnight in LB. The next day, these cultures were diluted to OD 0.1 in 5 mL M9 salts+0.4% glycerol and allowed to grow for 2 hours. […] From then on, the cultures were sampled at 2, 4, 8, 24, and 49 hours. 200 μL of culture was extracted at each time point and spun down at 16,000 g for 10 minutes. The supernatant was isolated, and 100 μL supernatant was mixed with 300 μL methanol to prepare HPLC samples. The cell pellet was resuspended in 100 μL Bacterial Protein Extraction Reagent (B-PER; Thermo Fisher) and allowed to incubate at room temperature for 15 minutes to complete lysis. After this time had elapsed, 25 μL of 5× reducing gel loading buffer was added to each sample.
# Samples for HPLC were further clarified by spinning at 16,000 g for 30 minutes. 100 μL of each clarified sample was placed into autosampler vials. […] Samples and standards were within the linear range of detection, and the absorbance peaks were integrated for quantification.
# Samples for western blot analysis were boiled for 5 minutes. […] Protein bands were quantified using LI-COR Odyssey software, and the NicA2 standard curve was used to determine the linear range of detection and concentration of NicA2 at each time point from the experiment.
# [4] = molecular target: T1, Pseudomonas putida S16 nicotine oxidoreductase NicA2, wild type, SEQ ID NO:131; details: anaerobic, pH 7.5, 4° C., 450 nm
# Target sequence in this assay (F8G0P2 2-482): as the sequence (F8G0P2 2-482) above
# Procedure: All stopped-flow experiments were performed in 40 mM HEPES-KOH, pH 7.5, 100 mM NaCl, 10% glycerol at 4° C. NicA2 and CycN solutions were made anaerobic in glass tonometers by repeated cycles with vacuum and anaerobic argon^42. When needed, NicA2's FAD was reduced in the anaerobic tonometer by titrating with a dithionite solution housed in a gas-tight Hamilton syringe. The dithionite solution was slowly added up to the point where NicA2's flavin reached the fully-reduced hydroquinone state, and the redox status of the flavin was spectrophotometrically monitored during the titration using a Shimadzu UV-1900 UV-VIS spectrophotometer. […] The various O2/N2 gas ratios were prepared from O2 and N2 gas cylinders using a Maxtec MaxBlend 2 gas mixer, and the dissolved O2 concentration in the buffer solution was calculated using a Henry's law constant for O2 of 770 atm M^−1.
# Stopped-flow experiments were conducted using a TgK Scientific SF-61 DX2 KinetAsyst stopped-flow instrument that had been previously equilibrated with a glucose/glucose oxidase solution to make the internal components of the system anaerobic. […] The reaction of NicA2-Flred with O2 was monitored using the instrument's multi-wavelength CCD detector (1.6 ms data interval time). […]
# [5] = molecular target: T1, Pseudomonas putida S16 nicotine oxidoreductase NicA2, wild type, SEQ ID NO:131; details: estimated from reported doubling time of one hour
# Target sequence in this assay (F8G0P2 39-482): as the sequence (F8G0P2 39-482) above
# [6] = tested on: Pseudomonas putida S16 nicotine oxidoreductase NicA2, wild type, SEQ ID NO:131; details: in vitro, cited from earlier work
# [7] = cited from earlier work
compound,measurement,setting,value
CN1CCC[C@H]1c1ccc(O)nc1 [L-6-hydroxynicotine],kcat,"[1]; O2 as the electron acceptor for flavin oxidation, substrate L-6-hydroxynicotine",78 s⁻¹
same,kcat/Km,[1],600000 M⁻¹ s⁻¹
CN1CCC[C@H]1c1cccnc1 [L-nicotine],kcat/Km,[1],42 M⁻¹ s⁻¹
"O=O [O2, molecular oxygen]",kcat,[1]; reaction with oxygen,78 s⁻¹
same,kobs of NicA2-Flred oxidation by O2,"[2]; at ~250 μM O2, calculated from bimolecular rate constant",0.007 s⁻¹
same,bimolecular rate constant for flavin oxidation by O2 (kox^O2),"[2]; pH 7.5, 4° C., 450 nm",27 ± 1 M⁻¹ s⁻¹ and 27 M⁻¹ s⁻¹
CN1CCC[C@H]1c1cccnc1 [nicotine],concentration toxic to E. coli,Escherichia coli; about this level or higher,about 1 mg/mL
same,in vivo turnover rate,[3],about 24 s^−1
same,"kobs (fastest phase, reduction of NicA2's FAD by nicotine)",[4],about 180 s^−1
same,kcat for degrading nicotine relative to NicA2,[1]; oxygen dependent reaction,5 fold
same,in vivo turnover rate (kcat),[5],1 s⁻¹
same,turnover number (O2-dependent nicotine turnover),[6]; O2 as electron acceptor,0.007 s⁻¹
same,kcat (conversion of nicotine to pseudooxynicotine),[6]; oxygen as electron acceptor,0.007 s⁻¹
CNCCCC(=O)c1cccnc1 [pseudooxynicotine],concentration up to which non-toxic to E. coli,Escherichia coli; e. coli culture,at least 5 mg/mL
same,addictiveness in animal models,[7],non-addictive
same,toxicity in animal models,[7],non-toxic
